Experimental findings from patent publication US20210369710A1, “MODULATORS OF MYC FAMILY PROTO-ONCOGENE PROTEIN” (Nalo Therapeutics, priority 2019, published 2021) are described below.

The target in one assay is T1, MycN Protein (Homo sapiens, UniProt P04198).
T1 construct: endogenous in cells; host or cells: HL-60 or SKNBE2
T1 sequence (P04198 1-464): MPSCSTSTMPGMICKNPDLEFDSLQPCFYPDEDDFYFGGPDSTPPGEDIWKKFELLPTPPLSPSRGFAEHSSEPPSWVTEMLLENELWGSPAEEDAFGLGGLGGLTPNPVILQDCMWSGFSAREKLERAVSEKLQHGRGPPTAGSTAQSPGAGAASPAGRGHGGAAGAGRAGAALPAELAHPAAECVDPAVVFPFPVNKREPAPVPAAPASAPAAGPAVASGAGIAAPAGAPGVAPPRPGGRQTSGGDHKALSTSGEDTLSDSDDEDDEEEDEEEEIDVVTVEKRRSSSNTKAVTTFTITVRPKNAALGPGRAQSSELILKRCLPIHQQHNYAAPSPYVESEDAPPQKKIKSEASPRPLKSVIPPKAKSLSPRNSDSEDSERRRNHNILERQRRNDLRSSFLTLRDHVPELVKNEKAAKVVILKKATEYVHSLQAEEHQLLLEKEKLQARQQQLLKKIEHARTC
In words: Degradation of MycN protein, Western blot band density in cells. Type of assay: cell-based. The conditions noted are these: HL-60 or SKNBE2 cells; 6 uL of compound (1 mM) added to 3 mL cells; 6 hours; Western blot band density (ImageJ). The method in brief:
(§1)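 HL-60 leukemia or SKNBE2 neuroblastoma cells (3×10^6 per well, passages below 40) were exposed for 6 h to compound added from a 1 mM stock. RIPA lysates (25-30 ug protein) were run on SDS-PAGE and immunoblotted for c-Myc or MycN. Band density was quantified from the western images.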
A general note: In western blotting, separated proteins are transferred to a membrane and probed.

The target in the next assay is T2, MycC Protein (Homo sapiens, UniProt P01106).
T2 construct: endogenous in cells; host or cells: HL-60 or SKNBE2
Nature of the assay: Degradation of MycC protein, Western blot band density in cells. The assay is classed as cell-based. The conditions noted are these: HL-60 or SKNBE2 cells; 6 uL of compound (1 mM) added to 3 mL cells; 6 hours; Western blot band density (ImageJ). In short, it runs like this:
as §1

Molecules are shown by their SMILES.

T2 sequence (P01106 whole entry): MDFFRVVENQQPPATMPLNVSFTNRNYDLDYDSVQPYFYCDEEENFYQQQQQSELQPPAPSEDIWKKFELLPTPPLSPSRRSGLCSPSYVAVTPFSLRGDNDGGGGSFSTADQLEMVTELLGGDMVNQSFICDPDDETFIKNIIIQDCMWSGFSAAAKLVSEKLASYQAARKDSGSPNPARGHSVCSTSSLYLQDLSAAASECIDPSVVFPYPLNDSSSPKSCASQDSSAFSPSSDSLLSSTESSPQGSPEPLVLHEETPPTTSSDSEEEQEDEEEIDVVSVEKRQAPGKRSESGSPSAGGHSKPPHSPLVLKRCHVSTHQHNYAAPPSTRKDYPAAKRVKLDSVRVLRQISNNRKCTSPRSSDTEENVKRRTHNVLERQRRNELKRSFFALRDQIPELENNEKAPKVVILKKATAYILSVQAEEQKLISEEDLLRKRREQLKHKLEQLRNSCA

By Dmax is commonly meant the largest share of the target that was removed. On to `CN(c1nccc(Nc2cc(C3CC4(CC4)C3)[nH]n2)n1)[C@H]1CC[C@H](NC(=O)NC2Cc3ccc(C#N)cc3C2)CC1` (stereo partly drawn) [Compound 148, 1-(5-cyano-2,3-dihydro-1H-inden-2-yl)-3-((1R,4R)-4-(methyl(4-((5-(spiro[2.3]hexan-5-yl)-1H-pyrazol-3-yl)amino)pyrimidin-2-yl)amino)cyclohexyl)urea], for which the maximal degradation (Dmax) at 2 µM at MycN Protein lay in the range of 80 to 100%; at MycC Protein, 50 to 79%.
Regarding `CN(c1nccc(Nc2cc(C3CCC(F)(F)C3)[nH]n2)n1)[C@H]1CC[C@H](NC(=O)NC2Cc3ccc(C#N)cc3C2)CC1` (stereo partly drawn) [Compound 149, 1-(5-cyano-2,3-dihydro-1H-inden-2-yl)-3-((1R,4R)-4-((4-((5-(3,3-difluorocyclopentyl)-1H-pyrazol-3-yl)amino)pyrimidin-2-yl)(methyl)amino)cyclohexyl)urea], the Dmax at 2 µM on MycN Protein was 50 to 79%; on MycC Protein, below 20%.
For `CN(c1nccc(Nc2cc(C3CC3)[nH]n2)n1)[C@H]1CC[C@H](NC(=O)NC2Cc3ccccc3C2)CC1` [Compound 150, 1-((1R,4R)-4-((4-((5-cyclopropyl-1H-pyrazol-3-yl)amino)pyrimidin-2-yl)(methyl)amino)cyclohexyl)-3-(2,3-dihydro-1H-inden-2-yl)urea], the greatest degradation seen (Dmax) at 2 µM on MycN Protein and on MycC Protein was 80 to 100% each time.
Regarding `COCCN(c1nccc(Nc2cc(C3CC3)[nH]n2)n1)C1CCC(NC(=O)NC2Cc3ccc(C#N)cc3C2)CC1` [Compound 152, 1-(5-cyano-2,3-dihydro-1H-inden-2-yl)-3-((1R,4R)-4-((4-((5-cyclopropyl-1H-pyrazol-3-yl)amino)pyrimidin-2-yl)(2-methoxyethyl)amino)cyclohexyl)urea], the “% Degradation of MycN” value on MycN Protein is “**** (****: degradation 80-100%)”. At MycC Protein, the “% Degradation of MycC” value is given as “**** (****: degradation 80-100%)”.
`CN(C(=O)N[C@H]1CC[C@H](N(C)c2nccc(Nc3cc(C4CCCC4)[nH]n3)n2)CC1)C1Cc2ccc(C#N)cc2C1` (stereo partly drawn) [Compound 153, 1-(5-cyano-2,3-dihydro-1H-inden-2-yl)-3-((1R,4R)-4-((4-((5-cyclopentyl-1H-pyrazol-3-yl)amino)pyrimidin-2-yl)(methyl)amino)cyclohexyl)-1-methylurea]: the Dmax at 2 µM on MycN Protein fell in the range of 20 to 49%; on MycC Protein, 50 to 79%.
